# Test results: ChEMBL document CHEMBL2434883, “Novel heterocyclic-fused pyrimidine derivatives: synthesis, molecular modeling and pharmacological screening” (Eur J Med Chem, 2013)
# Assays:
# MCF7 = assay: Cytotoxicity against human MCF7 cells after 48 hrs by SRB assay; format: functional, cell-based; settings: MCF7, 48 h
# Homo sapiens = species on record: Homo sapiens; assay: Inhibition of VEGFR (unknown origin) using [33P]-ATP as substrate at 10 uM after 30 mins by scintillation counting analysis relative to control
# [1] = target: Proto-oncogene tyrosine-protein kinase Src (Homo sapiens) (UniProt P12931); assay: Inhibition of c-Src (unknown origin) using [33P]-ATP as substrate at 10 uM after 30 mins by scintillation counting analysis relative to control
# Proto-oncogene tyrosine-protein kinase Src (Homo sapiens), sequence (P12931 2-536 limits assumed): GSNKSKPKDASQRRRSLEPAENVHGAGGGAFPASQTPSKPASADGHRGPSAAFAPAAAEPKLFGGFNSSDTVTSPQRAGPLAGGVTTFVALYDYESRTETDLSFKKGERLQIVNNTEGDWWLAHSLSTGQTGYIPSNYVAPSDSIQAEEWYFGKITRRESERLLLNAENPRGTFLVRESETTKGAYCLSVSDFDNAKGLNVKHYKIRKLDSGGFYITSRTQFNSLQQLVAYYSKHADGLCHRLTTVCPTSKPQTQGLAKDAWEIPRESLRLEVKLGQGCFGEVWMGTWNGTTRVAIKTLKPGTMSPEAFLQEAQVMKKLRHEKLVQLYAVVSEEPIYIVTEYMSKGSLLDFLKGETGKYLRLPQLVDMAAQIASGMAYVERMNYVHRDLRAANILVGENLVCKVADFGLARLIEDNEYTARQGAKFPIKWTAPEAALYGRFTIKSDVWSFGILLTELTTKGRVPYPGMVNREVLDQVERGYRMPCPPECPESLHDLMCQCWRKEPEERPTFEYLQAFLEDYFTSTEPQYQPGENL
Compound,IC50 (MCF7),inhibition (Homo sapiens),inhibition [1]
O=C1N(c2ccccc2)c2[nH]c(=S)sc(=O)c2C2CCCCCN12 (stereo not given),14 µg/mL,,
O=c1[nH]cnc2c1C1CCCN1C(=S)N2c1ccccc1 (stereo not given),20 µg/mL,,
N=c1c2c([nH]c(=O)n1-c1ccccc1)N(c1ccccc1)C(=O)N1CCCC21 (stereo not given),9.6 µg/mL,11%,0%
Cc1ccc(NC(=O)CNC2=C(C#N)C3CCCN3C(=O)N2c2ccccc2)cc1 (stereo not given),21.6 µg/mL,,
N#CC1=C(N2C(=O)C(=O)N(c3ccccc3)C2=O)N(c2ccccc2)C(=O)N2CCCC12 (stereo not given),10.8 µg/mL,25%,45%
Nc1nc(=S)[nH]c2c1C1CCCN1C(=O)N2c1ccccc1 (stereo not given),13.6 µg/mL,,
Nc1nc(=S)[nH]c2c1C1CCCCCN1C(=O)N2c1ccccc1 (stereo not given),10.8 µg/mL,,
N#CC1=C(NC(=S)Nc2ccccc2)NC(=S)N2CCCC12 (stereo not given),20.8 µg/mL,,
N#CC1=C(NC(=O)Nc2ccccc2)N(c2ccccc2)C(=O)N2CCCC12 (stereo not given),19.8 µg/mL,,
N#CCC(=O)NC1=C(C#N)C2CCCN2C(=O)N1c1ccccc1 (stereo not given),12.8 µg/mL,0%,0%
O=C1N(c2ccccc2)c2[nH]c(=S)nc(/N=C/c3ccc(Cl)cc3)c2C2CCCN12 (stereo not given),12.4 µg/mL,,
O=c1sc(=S)[nH]c2c1C1CCCN1C(=S)N2c1ccccc1 (stereo not given),18.8 µg/mL,,
O=C1N(c2ccccc2)c2nc[nH]c(=O)c2C2CCCN12 (stereo not given),14.8 µg/mL,,
N#CC1=C(N2C(=O)CN(c3ccccc3)C2=O)N(c2ccccc2)C(=O)N2CCCC12 (stereo not given),18.6 µg/mL,,
O=C1N(c2ccccc2)c2[nH]c(=S)sc(=O)c2C2CCCN12 (stereo not given),17 µg/mL,,
N#CC1=C(NC(=S)Nc2ccccc2)N(c2ccccc2)C(=O)N2CCCC12 (stereo not given),16.6 µg/mL,,
O=C1N(c2ccccc2)c2nc[nH]c(=O)c2C2CCCCCN12 (stereo not given),11.2 µg/mL,3%,81%
NNc1ncnc2c1C1CCCN1C(=O)N2c1ccccc1 (stereo not given),11 µg/mL,,
Nc1nc(=S)[nH]c2c1C1CCCN1C(=S)N2c1ccccc1 (stereo not given),22.8 µg/mL,,
Cc1ccc(NC(=O)CNC2=C(C#N)C3CCCN3C(=S)N2c2ccccc2)cc1 (stereo not given),12.8 µg/mL,,
N#CC1=C(NC(=O)Nc2ccccc2)N(c2ccccc2)C(=S)N2CCCC12 (stereo not given),14.2 µg/mL,,
O=C1N(c2ccccc2)c2[nH]c(=S)nc(/N=C/c3ccc(Cl)cc3)c2C2CCCCCN12 (stereo not given),10.6 µg/mL,,
